Data from patent US20260274836A1, “NOVEL HEPATOSELECTIVE POLYADENYLATING POLYMERASES INHIBITORS AND THEIR METHOD OF USE” (Baruch S. Blumberg Institute, priority 2022, published 2026).
Read-outs that look alike come from different tables or passages of the source.

Tests used:
in vitro = assay type: cell-based; settings: human
Experimental: Assays for the anti-HAV activity of the hepatoselective DHQ compounds were carried out in Huh-7 human hepatoma cells using the 18f-NLuc reporter virus, which expresses nanoluciferase (NLuc) from sequence inserted into the polyprotein coding region of the HM175/18f HAV genome between the VP1pX and 2B coding sequences (Yamane et al., 2019). The method was modified minimally from that described by Misumi et al. for iminosugar compounds (Misumi et al., 2021). Cells (approximately […]) were plated in wells of a 96-well plate with Dulbecco's modified Eagle medium (DMEM) and 10% fetal bovine serum. The cells were inoculated 24 hrs later with 18f-NLuc virus (approximately 10^6-10^7 genome equivalents) in medium containing increasing concentrations of the compounds of interest. […] Luminescence was measured using a Biotek Synergy II multi-mode plate reader (BioTek Instruments). […] Cell toxicity of the compounds was assessed using the WST-1 Cell Proliferation Reagent (Sigma-Aldrich) at the end of the treatment period in parallel cultures of uninfected cells, with WST-1 reagent added to cultures for 1 hr prior to harvest and O.D. reading.
Additional exemplary compounds of the present invention are evaluated for anti-HAV activity in accordance with certain assays described hereinabove. […] Luminescence was measured using a Biotek Synergy II multi-mode plate reader (BioTek Instruments). […]

[1] = tested on: 18f-NLuc reporter virus (HM175/18f HAV); experiment: Antiviral activity against human hepatitis A virus, 18f-NLuc reporter virus in Huh-7 cells; assay type: cell-based, Human Hepatitis A Virus (Hepatovirus A)
Experimental: Assay for Antiviral Activity Against Human Hepatitis A Virus (Hepatovirus A).
(§1) Assays for the anti-HAV activity of the hepatoselective DHQ compounds were carried out in Huh-7 human hepatoma cells using the 18f-NLuc reporter virus, which expresses nanoluciferase (NLuc) from sequence inserted into the polyprotein coding region of the HM175/18f HAV genome between the VP1pX and 2B coding sequences (Yamane et al., 2019). The method was modified minimally from that described by Misumi et al. for iminosugar compounds (Misumi et al., 2021). Cells (approximately […]) were plated in wells of a 96-well plate with Dulbecco's modified Eagle medium (DMEM) and 10% fetal bovine serum. The cells were inoculated 24 hrs later with 18f-NLuc virus (approximately 10^6-10^7 genome equivalents) in medium containing increasing concentrations of the compounds of interest. The cells were re-incubated for 48 hrs at 37° C. in a 5% CO2 environment, then lysed in 1× passive lysis buffer (Promega) for 15 min at room temperature. Cell lysates were transferred to an opaque white 96-well plate (Corning, 3912) and NLuc assay carried out using the NLuc GLOW Assay kit (Nanolight Technology). Luminescence was measured using a Biotek Synergy II multi-mode plate reader (BioTek Instruments). The percent inhibition of replication was calculated by determining the reduction in NLuc activity from that expressed by infected cells incubated in parallel in the absence of compound, and 50% inhibitory endpoints estimated by fitting the data to a four parameter variable slope logistic curve using Prism 9 for Mac OS software (GraphPad). Cell toxicity of the compounds was assessed using the WST-1 Cell Proliferation Reagent (Sigma-Aldrich) at the end of the treatment period in parallel cultures of uninfected cells, with WST-1 reagent added to cultures for 1 hr prior to harvest and O.D. reading.
as §1, with “Additional exemplary compounds of the present invention are evaluated for anti-HAV activity in accordance with certain assays described hereinabove. As discussed above, assays” for “Assays”, “10^6-107” for “10^6-10^7”

OATP1B1 = target: T1, OATP1B1 (Homo sapiens, UniProt Q9Y6L6); experiment: OATP1B1 transporter substrate uptake in OATP1B1-HEK293 cells; assay type: in vitro ADME; settings: for Uptake Ratio (−/+Inhibitor): OATP1B1-HEK293 cells, inhibitor Rifamycin SV
T1 construct: expressed in transfected cells; host or cells: HEK293
T1 sequence (Q9Y6L6 1-691): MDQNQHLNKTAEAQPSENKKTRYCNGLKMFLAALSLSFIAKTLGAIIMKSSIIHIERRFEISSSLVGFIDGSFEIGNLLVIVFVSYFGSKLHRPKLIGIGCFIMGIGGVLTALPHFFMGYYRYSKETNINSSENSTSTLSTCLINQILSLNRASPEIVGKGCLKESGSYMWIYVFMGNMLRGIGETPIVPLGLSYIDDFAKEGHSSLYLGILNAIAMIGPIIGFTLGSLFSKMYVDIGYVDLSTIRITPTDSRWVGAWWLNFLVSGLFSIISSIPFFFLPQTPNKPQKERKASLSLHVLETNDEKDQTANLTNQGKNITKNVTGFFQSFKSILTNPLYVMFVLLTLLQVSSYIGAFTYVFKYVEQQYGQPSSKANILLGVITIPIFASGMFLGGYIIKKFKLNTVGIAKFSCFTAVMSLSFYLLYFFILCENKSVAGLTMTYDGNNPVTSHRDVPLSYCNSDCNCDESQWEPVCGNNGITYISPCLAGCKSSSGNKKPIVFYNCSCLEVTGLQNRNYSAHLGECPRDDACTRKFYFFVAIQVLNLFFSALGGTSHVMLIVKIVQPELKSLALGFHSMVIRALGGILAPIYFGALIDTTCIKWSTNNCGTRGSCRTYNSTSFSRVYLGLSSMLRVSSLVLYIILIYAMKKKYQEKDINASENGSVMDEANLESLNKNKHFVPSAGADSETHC
Experimental: (§2) Protocol for identification of compounds that are substrates of transporters OATPIBI and OATPIB3. Transfected HEK293 and vector control HEK293 cells were cultured in 24-well poly-D-lysine or collagen-coated tissue culture plates ([…]) for 2 and 10 minutes respectively in transport buffer (HBSSg, pH 7.4, pre-warmed to 37° C.). At a defined time point, the uptake experiments were stopped by removing dosing solution followed by two washes of ice-cold HBSSg buffer. The cells were lysed for 2 minutes with 75% ACN containing an appropriate internal standard (when available). Lysis buffer were chilled to −20° C., and the plate was kept on ice during lysis. The cell lysate was transferred into a 96-well plate for sample analysis with LC-MS/MS analysis to determine concentration of test compound in cell lysate. The uptake of test compounds was normalized by total cell protein using the BCA Protein Assay Kit following the manufacturer's protocol. The inhibitor Rifamycin SV was used to block OATP1B1 and OATP1B3 transporter activity in order to determine uptake ratios.

OATP1B3 = target: T2, OATP1B3 (Homo sapiens, UniProt Q9NPD5); experiment: OATP1B3 transporter substrate uptake in OATP1B3-HEK293 cells; assay type: in vitro ADME; settings: for Uptake Ratio (−/+Inhibitor): OATP1B3-HEK293 cells, inhibitor Rifamycin SV
T2 construct: expressed in transfected cells; host or cells: HEK293
T2 sequence (Q9NPD5 1-702): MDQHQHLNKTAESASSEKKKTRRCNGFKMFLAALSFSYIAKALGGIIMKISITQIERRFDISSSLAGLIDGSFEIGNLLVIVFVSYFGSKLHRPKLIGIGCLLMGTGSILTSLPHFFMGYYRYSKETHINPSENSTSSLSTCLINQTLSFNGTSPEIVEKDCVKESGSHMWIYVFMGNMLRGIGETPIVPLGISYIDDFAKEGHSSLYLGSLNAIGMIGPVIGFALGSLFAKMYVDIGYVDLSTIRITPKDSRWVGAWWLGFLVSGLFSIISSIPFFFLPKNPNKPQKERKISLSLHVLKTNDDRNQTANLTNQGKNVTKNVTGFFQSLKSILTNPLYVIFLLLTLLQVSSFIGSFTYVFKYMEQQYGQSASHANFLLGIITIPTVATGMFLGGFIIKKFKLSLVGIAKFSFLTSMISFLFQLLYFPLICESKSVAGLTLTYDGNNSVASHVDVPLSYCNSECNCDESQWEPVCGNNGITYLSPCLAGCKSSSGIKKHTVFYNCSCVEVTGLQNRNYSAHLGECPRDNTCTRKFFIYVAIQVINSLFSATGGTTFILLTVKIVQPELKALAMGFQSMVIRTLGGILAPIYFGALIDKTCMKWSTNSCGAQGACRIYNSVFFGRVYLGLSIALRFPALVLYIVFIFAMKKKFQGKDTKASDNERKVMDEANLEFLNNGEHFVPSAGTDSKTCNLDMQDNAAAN
Experimental: as §2

[2] = target: interaction of PAPD5 with ZCCHC14 (Homo sapiens, UniProt Q8NDF8); experiment: Interaction of PAPD5 with ZCCHC14
Chain of interaction of PAPD5 with ZCCHC14 (Q8NDF8 whole entry): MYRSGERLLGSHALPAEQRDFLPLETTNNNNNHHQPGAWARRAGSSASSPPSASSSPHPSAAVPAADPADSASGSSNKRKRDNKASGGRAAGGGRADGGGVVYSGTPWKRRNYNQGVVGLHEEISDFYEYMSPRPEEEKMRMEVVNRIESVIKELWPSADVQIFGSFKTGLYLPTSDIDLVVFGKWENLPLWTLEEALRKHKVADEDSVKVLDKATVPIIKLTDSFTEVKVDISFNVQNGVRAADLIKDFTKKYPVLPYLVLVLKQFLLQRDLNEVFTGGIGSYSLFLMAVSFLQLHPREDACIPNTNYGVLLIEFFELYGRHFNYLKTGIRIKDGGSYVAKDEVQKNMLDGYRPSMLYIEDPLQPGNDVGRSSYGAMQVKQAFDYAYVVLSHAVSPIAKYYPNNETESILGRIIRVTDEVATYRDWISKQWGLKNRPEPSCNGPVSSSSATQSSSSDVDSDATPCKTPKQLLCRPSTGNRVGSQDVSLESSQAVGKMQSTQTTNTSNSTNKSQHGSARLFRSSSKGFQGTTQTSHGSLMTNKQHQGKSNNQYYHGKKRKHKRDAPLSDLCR

HAV [3] = settings: Ifnar1^−/− mice, cited from earlier work
HAV [4] = settings: cited from earlier work
[5] = read-out: EC50 HAV, Huh-7 cells, 18f-NLuc virus, 48 hrs
[6] = Hepatovirus A, Huh-7, 48 h, read-out: EC50 HAV (nM), Huh-7 cells, 18f-NLuc virus, 48 hrs

Question: What does the source list for COc1cc2c(cc1OCCCCCCCCC(=O)O)C[C@@H](C(C)C)n1cc(C(=O)O)c(=O)cc1-2 [Example 8, (S)-9-((8-carboxyoctyl)oxy)-6-isopropyl-10-methoxy-2-oxo-6,7-dihydro-2H-pyrido[2,1-a]isoquinoline-3-carboxylic acid]?
Answer: CC50 at 48 h (in vitro): > 10 µM; EC50 ([1]; Hepatovirus A, Huh-7, 48 h, Huh-7 cells, 18f-NLuc virus, 48 hrs): 18.2 nM

Question: For COc1cc2c(cc1OCCCCCCCCC(=O)O)C[C@@H](C(C)C)n1cc(C(=O)O)c(=O)cc1-2 [Example H], which EC50 [1, 5] is on record?
Answer: 18.2 nM

Question: Which EC50 [1, 6] does the source give for COc1cc2c(cc1OCCc1cccc(C(=O)O)c1)C[C@@H](C(C)C)n1cc(C(=O)O)c(=O)cc1-2 [Example C] here?
Answer: 325 nM

Question: For COc1cc2c(cc1OCCCCCC(C)(C)C(=O)O)C[C@@H](C(C)C)n1cc(C(=O)O)c(=O)cc1-2 [Example F], which EC50 [1, 6] is on record?
Answer: 25 nM

Question: For COc1cc2c(cc1OCCCCCCC(=O)O)C[C@@H](C(C)C)n1cc(C(=O)O)c(=O)cc1-2 [Example G], which EC50 [1, 6] is on record?
Answer: 278 nM

Question: For COc1cc2c(cc1OCCCCCCCCC(=O)O)C[C@@H](C(C)C)n1cc(C(=O)O)c(=O)cc1-2 [Example B], which EC50 [1, 5] is on record?
Answer: 63 nM

Question: Which EC50 [1, 6] does the source give for COc1cc2c(cc1OCCc1ccc(C(=O)O)cc1)C[C@@H](C(C)C)n1cc(C(=O)O)c(=O)cc1-2 [Example D] here?
Answer: 245 nM

Question: For COc1cc2c(cc1OCCCc1ccc(C(=O)O)cc1)C[C@@H](C(C)C)n1cc(C(=O)O)c(=O)cc1-2 [Example E], which EC50 [1, 6] is on record?
Answer: 382 nM

Question: For COc1cc2c(cc1OCCCCCCCCC(=O)O)C[C@@H](C(C)C)n1cc(C(=O)O)c(=O)cc1-2 [Example A], which EC50 [1, 5] is on record?
Answer: 67 nM

Question: Which “Uptake Ratio (−/+Inhibitor)” value (OATP1B1; test concentration 10 μM) does the source give for C[C@]12CC[C@@H]3c4ccc(O)cc4CC[C@H]3[C@@H]1CC[C@@H]2O[C@@H]1O[C@H](C(=O)O)[C@@H](O)[C@H](O)[C@H]1O [Estradiol 17-β Glucuronide] here?
Answer: 81.84

Question: What about the “Uptake Ratio (Transporter(−Inhibitor)/Mock(−Inhibitor))” value (OATP1B1; OATP1B1-HEK293 vs mock HEK293, test concentration 10 μM) of the same compound?
Answer: 48.70

Question: What about the “Uptake Ratio (−/+Inhibitor)” value (OATP1B3; test concentration 10 μM) of the same compound?
Answer: 86.15

Question: What about the “Uptake Ratio (Transporter(−Inhibitor)/Mock(−Inhibitor))” value (OATP1B3; OATP1B3-HEK293 vs mock HEK293, test concentration 10 μM) of the same compound?
Answer: 98.86

Question: What does the source list for COCCCOc1cc2c(cc1OC)-c1cc(=O)c(C(=O)O)cn1[C@H](C(C)C)C2 [DHQ-1]?
Answer: Uptake Ratio (−/+Inhibitor) (OATP1B1; test concentration 1 μM): 0.38; Uptake Ratio (Transporter(−Inhibitor)/Mock(−Inhibitor)) (OATP1B1; OATP1B1-HEK293 vs mock HEK293, test concentration 1 μM): 0.71; Interaction of PAPD5 with ZCCHC14 [2]: prevents the interaction of PAPD5 with ZCCHC14; Prevention of infection (HAV [3]; given shortly after intravenous virus challenge): completely prevented infection; HAV replication in mice (HAV [3]; oral treatment): blocked HAV replication; HAV replication in cultured cells (HAV [4]): inhibit HAV replication; Uptake Ratio (−/+Inhibitor) (OATP1B3; test concentration 1 μM): 0.42; Uptake Ratio (Transporter(−Inhibitor)/Mock(−Inhibitor)) (OATP1B3; OATP1B3-HEK293 vs mock HEK293, test concentration 1 μM): 0.56
